In article PMC11486130, “Structure-guided discovery of novel dUTPase inhibitors with anti-Nocardia activity by computational design” (Journal of Enzyme Inhibition and Medicinal Chemistry, 2024):

Tests used:
[1] = target: T1, NsdUTPase K93A (Nocardia seriolae, UniProt A0ABF7PKI9, K93A); assay: Kd to K93A mutant of NsdUTPase; assay type: binding, N. seriolae
T1 sequence (A0ABF7PKI9 1-166 K93A): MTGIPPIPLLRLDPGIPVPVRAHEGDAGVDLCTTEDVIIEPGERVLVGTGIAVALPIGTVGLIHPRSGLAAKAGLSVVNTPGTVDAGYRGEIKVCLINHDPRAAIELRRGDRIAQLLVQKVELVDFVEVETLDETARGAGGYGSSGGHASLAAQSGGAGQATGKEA

[2] = target: T2, NsdUTPase A22V (Nocardia seriolae, UniProt A0ABF7PKI9, A22V); assay: Kd to A22V mutant of NsdUTPase; assay type: binding, N. seriolae
T2 sequence (A0ABF7PKI9 1-166 A22V): T1 sequence (A0ABF7PKI9 1-166 K93A)

Row | Structure (SMILES) | Kd [1] [µM] | Kd [2] [µM]
1 | C=CCn1c(/C=C/c2ccccc2)nc2cc(C(F)(F)F)ccc21 [4b, (E)-1-Allyl-2-styryl-5-(trifluoromethyl)-1H-benzo[d]imidazole] | 50.7 | 5.34
2 | C=CCn1c(-c2ccc(Oc3ccccc3)cc2)nc2cc(C)ccc21 [12b, 1-Allyl-5-methyl-2-(4-phenoxyphenyl)-1H-benzo[d]imidazole] | 40.9 | 3.16
